Measured values as given in US8088822B2, “Use of fenretinide or bioactive derivatives thereof and pharmaceutical compositions comprising the same” (priority 2008, dated 2012).
Read-outs that look alike come from different tables or passages of the source.

Key:
U937 = test: Growth inhibition and combination index in AML cell line U937; assay type: cell-based; conditions: U937, single agent
Description: The combination Index (CI) was used to test the combination effect of fenretinide and Ara-C on growth inhibition in AML cell line U937. The CI was calculated according to the classic isobologram equation: CI=d1/D1+d2/D2. In this equation, D1 and D2 represent the doses of drug 1 and drug 2 alone, required to produce x % effect, and d1 and d2 are the doses of drugs 1 and 2 in combination required to produce the same effect. And CI<1, CI>1 and CI=1 represent the synergism, […], respectively.

CML CD34+ cells = test: Colony forming assay in primary CML CD34+ cells; assay type: cell-based, human; conditions: 14 days; for inhibition at 2 µM / inhibition at 4 µM: Homo sapiens, 336 h; for inhibition at 2 µM: 2 μM fenretinide; for inhibition at 4 µM: 4 μM fenretinide
Description: Fresh bone marrow (BM) cells were obtained from 38 patients with CML and 5 non-leukemic donors, 25 AML, 17 ALL, and 8 normal specimens with informed consent according to the Declaration of Helsinki. Approval was obtained from Institutional Review Board at the School of Medicine in Shanghai Jiao Tong University. BM mononuclear cells were isolated by Ficoll density gradient centrifugation (Shanghai Second Reagent Factory, Shanghai, China). CD34^+ Cell were selected using EasySep® Human CD34 Positive Selection kit (Stem Cell Technologies, Vancouver, BC, Canada) according to the manufacturer's instructions. […] The CD34^+ cells were cultured in a serum-free medium (StemPro 34; Gibco BRL, Gaithersburg, Md.) supplemented with growth factors (PeproTech, London, United Kingdom) (20). The growth factors consisted of GM-CSF (200 pg/mL), G-CSF (1 ng/mL); SCF (200 pg/mL); LIF (50 pg/mL), MIP-1α (200 pg/mL) and IL-6 (1 ng/mL).
A quantity of 1000 CD34^+ cells were plated in semisolid methylcellulose-based media (Methocult H4434: Stem Cell Technologies, Vancouver, BC, Canada). After incubation at 37° C. in a fully humidified atmosphere of 5% CO2 for 14 days, granulocyte macrophage-colony-forming units (CFU-GM), erythroid burst-forming units (BFU-E), granulocyte, erythrocyte and monocyte, megakaryocyte-colony-forming units (CUF-GEMM) were counted. Only clusters with >50 cells were counted as a colony.
We further performed study to examine the effects of fenretinide on colony forming in primary CML cells derived from 38 bone marrow specimens of CML patients (TABLE 1). First, CML CD34^+ Cells were isolated using EasySep® Human CD34 Positive Selection kit (Stem Cell Technologies, Vancouver, BC, Canada). Upon treated with 2 μM and 4 μM fenretinide, colony forming assays were performed respectively on granulocyte macrophage-colony-forming units (CFU-GM), erythroid burst-forming units (BFU-E), granulocyte, erythrocyte and monocyte, megakaryocyte-colony-forming units (CFU-GEMM).

MKN45 = test: Apoptosis in gastric tumor cell line MKN45 (Rh123/PI, FACS); assay type: cell-based; conditions: MKN45, 48 hours; 4 μM fenretinide, 5 μM Tet, alone or co-treatment
Description: Loss of MTP was evaluated through rhodamine 123 (Rh123) and propidium iodide (PI) staining. 2×10^5 cells were washed by PBS and incubated with 1 μg/ml Rh123 at 37° C. for 30 min. After washed by PBS, 10 μl PI was added to cells for 15 min at room temperature in the dark. Fluorescence emission at 530 nm (representing R123 retention as a function of MTP) was measured with flow cytometry.
Fenretinide induces intracellular ROS and ER stress to activate series of molecular events including apoptotic pathway and such anti-apoptotic pathways as NF-κB cascade. NF-κB can mediate the progression of inflammation-related cancer. […] Unlike fenretinide, Tet is the well-known anti-cancer and anti-inflammation drugs via inhibiting the activity of NF-κB. For example, Tet, as the main effective component of Stephenia tetrandra S Moore, has bioactivities in reversing MDR (multidrug resistance), blocking calcium ion channel and so on. […] FIGS. 19A and 19B show synergistic induction of apoptosis by fenretinide and Tet, as evaluated by Rh123/PI double stain using FACS. […] Through annexin-V/PI double staining, synergistic apoptosis profiles of fenretinide/tetrandrine co-treated MKN45 and SGC7901 cells were also observed (see FIGS. 19C and 19D).

[1] = tested on: CD34+CD38− acute leukemia stem and CD34+CD38+ progenitor population; test: Apoptosis of acute leukemia (AML and ALL) stem and progenitor subpopulations; assay type: cell-based, human; conditions: AML and ALL specimens
Description: Primitive AML and CML subpopulations (CD34^+ cells) were identified using CD34-PE in combination with CD38-APC, and followed by double-labeling with 7AAD and Annexin V antibodies for apoptosis assessment. The CD34^+ cells were first stained with antibodies against the surface markers CD34-PE and CD38-APC (Beckman Coulter, Fullerton, Calif.) and incubated at room temperature for 15 minutes. Cells were then washed with cold PBS and resuspended in 200 μL annexin V 1×binding buffer (10 mM HEPES/NaOH, pH 7.4, 140 mM NaCl, 2.5 mM CaCl2), 5 μL AnnexinV-FITC (BD Phanningen, San Diego, Calif.) and 7-aminoactinomycin (7-AAD, 0.25 mg/mL) (Molecular Probes, Eugene, Oreg.). Subsequently, the samples were incubated at room temperature for 15 minutes and analyzed by flow cytometry.
Furthermore, we examined whether fenretinide can preferentially target highly quiescent LSCs with CD34^+CD38^− immunophenotyte and leukemia progenitor cells with CD34^+CD38^+ for AML and most ALL specimens. Due to the difficulty of obtaining adequate normal CD34^+CD38^− cells, our apoptosis data of normal specimens came from CD34^− cell populations. Also, we used Ara-C and VCR (vincristine) as controls to test the apoptosis of leukemia stem cells, which were thought to be resistant to these chemotherapeutics.

[2] = read-out: inhibition of BFU-E number
[3] = CFU-GM, read-out: inhibition of CFU-GM number

**Q.** `CC1=C(/C=C/C(C)=C/C=C/C(C)=C/C(=O)Nc2ccc(O)cc2)C(C)(C)CCC1` [fenretinide, N-(4-hydroxyphenyl)retinamide] was tested. Which “dose alone required for growth inhibition rate of 65.47%” value (U937) did it give?
**A.** The value was 2.72 µM.

**Q.** What about the inhibition at 2 µM (CML CD34+ cells; [2]) of the same compound?
**A.** The inhibition at 2 µM was 24%.

**Q.** What about the inhibition at 4 µM (CML CD34+ cells; [2]) of the same compound?
**A.** The inhibition at 4 µM was 66%.

**Q.** What about the inhibition at 2 µM (CML CD34+ cells; [3]) of the same compound?
**A.** Its inhibition at 2 µM is 19%.

**Q.** What about the inhibition at 4 µM (CML CD34+ cells; [3]) of the same compound?
**A.** The inhibition at 4 µM was 36 ± 9%.

**Q.** What about the “GFU-GEMM formed by the more primitive progenitor cells” value (CML CD34+ cells; fenretinide 2 μM and 4 μM) of the same compound?
**A.** The value was “could not be detected”.

**Q.** What about the apoptosis (MKN45) of the same compound?
**A.** Its apoptosis is 6.2%.

**Q.** And the “apoptosis in CD34+CD38− acute leukemia stem population versus CD34+CD38+ progenitor population” value [1]?
**A.** Its value is “more apoptosis”.
